{"source": "paper PMC4139061", "about": "“Structural basis of nucleoside and nucleoside drug selectivity by concentrative nucleoside transporters” (eLife, 2014)", "target": "T1, hCNT1 (Homo sapiens, UniProt O00337)", "T1 sequence (O00337 1-649)": "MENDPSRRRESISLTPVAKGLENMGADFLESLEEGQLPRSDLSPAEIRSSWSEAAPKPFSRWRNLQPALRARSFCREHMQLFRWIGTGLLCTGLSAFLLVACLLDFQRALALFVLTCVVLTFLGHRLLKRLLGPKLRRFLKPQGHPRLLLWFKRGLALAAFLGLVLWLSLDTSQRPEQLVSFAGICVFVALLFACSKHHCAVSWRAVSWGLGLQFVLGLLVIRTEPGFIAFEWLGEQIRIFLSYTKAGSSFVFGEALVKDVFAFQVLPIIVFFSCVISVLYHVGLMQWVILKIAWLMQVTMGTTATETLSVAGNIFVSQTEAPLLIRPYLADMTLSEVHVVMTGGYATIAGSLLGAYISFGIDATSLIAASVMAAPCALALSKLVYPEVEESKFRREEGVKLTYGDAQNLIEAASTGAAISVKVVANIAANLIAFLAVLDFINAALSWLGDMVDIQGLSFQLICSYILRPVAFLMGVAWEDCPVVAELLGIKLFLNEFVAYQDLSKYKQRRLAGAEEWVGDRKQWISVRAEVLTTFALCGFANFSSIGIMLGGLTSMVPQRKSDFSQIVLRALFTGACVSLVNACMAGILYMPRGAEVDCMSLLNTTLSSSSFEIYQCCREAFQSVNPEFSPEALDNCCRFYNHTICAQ", "experiment": "two-electrode voltage-clamp of Na+ currents / total charge in Xenopus oocytes expressing hCNT1", "type": "cell-based", "source_text": "To detect nucleoside transport by hCNTs, we turned to two-electrode voltage-clamp electrophysiological recording. Because hCNTs are Na^+-nucleoside symporters, one can measure the current generated by the Na^+ transport that is coupled with nucleoside transport. We injected Xenopus oocytes with mRNA coding for each of the hCNTs and measured inward Na^+ currents elicited by the addition of different nucleosides to the extracellular side.\nThe genes coding for the three hCNTs and vcCNT were cloned into a pGEM-HE vector. Plasmids were linearized using either SphI or NheI, and mRNA was transcribed using the mMESSAGE mMACHINE T7 Transcription Kit (Ambion, Grand Island, NY). Defolliculated Xenopus laevis oocytes were purchased from Ecocyte Bioscience (Austin, TX). Individual oocytes were injected with 40 ng of mRNA using a 10-μl microdispenser (Drummond Scientific, Broomall, PA) fitted with a tapered glass pipette tip and incubated at 17 °C for 4–5 days in ND96 buffer (96 mM NaCl, 2 mM KCl, 1 mM MgCl2, 1.8 mM CaCl2, and 5 mM HEPES pH 7.5) with 0.1% penicillin and streptomycin before recording.\nThe oocyte-recording chamber was gravity-perfused with ND96 buffer at a rate of 2 ml/min. Membrane currents were measured using an Oocyte Clamp (OC-725C; Warner Instruments, Hamden, CT). Individual oocytes were penetrated with two microelectrodes filled with 3 M KCl (0.5–1.0 MΩ). All electrophysiological experiments were conducted at room temperature. The OC-725C Oocyte Clamp was computer-interfaced via an Axon Digidata 1550 and controlled by Axoscope software (Molecular Devices, Sunnyvale, CA). The current signals were filtered at 20 Hz and sampled at intervals of 20 ms. The signals were filtered at 0.5 Hz by use of pCLAMP 10.4 software for data presentation. […] Cells were discarded if resting membrane potentials were unstable or more positive than −30 mV. Oocyte membrane potentials were clamped at −90 mV for holding potentials to measure transporter-generated currents. All data are shown as means ± SEM.", "data": [{"compound": "Cc1cc2cn([C@@H]3O[C@H](CO)[C@@H](O)C3(F)F)c(=O)nc2[nH]1", "note": "[pyrrolo-gemcitabine]", "values": [{"measurement": "Total charge transported, Mean", "setting": "200 μM nucleoside, hCNT1-expressing Xenopus oocytes, mean of Exp. 1-11", "value": 0.823, "unit": "μC"}, {"measurement": "total charge uptake higher than gemcitabine", "setting": "fold, hCNT1 oocytes, 200 μM", "value": "sevenfold"}, {"measurement": "Qpyr-gem/Qgem, Mean", "setting": "ratio of total charge, 200 μM each, hCNT1, mean of Exp. 1-11", "value": 6.829}]}]}
